# Literature values as cited in patent US11938119B2, “Cannabis production systems and methods” ([…], LLC, priority 2017, dated 2024).
# Conditions: stated "in embodiments"; no solvent system or method printed
row,Compound,partition coefficient
1,C=C(C)[C@@H]1CCC(C)=C[C@H]1c1c(O)cc(CCCCC)cc1O [cannabidiol],5.79
2,CCCCCc1cc(O)c2c(c1)OC(C)(C)[C@@H]1CCC(C)=C[C@@H]21 [tetrahydrocannabinol],6.99
